Assays:
miR-145 = experiment: In vivo miR-145 expression in liver tissue (RT-qPCR); design: species or system mice; conditions: one month post treatment
Description: (§1) Subsequently, mice were fed a high fat diet (20-23% milkfat, 34% sucrose, 0.2% cholesterol, Teklad Envigo) for 2 weeks before intravenous tail vein injection of treatment (miR-145 micelles, miR-67 micelles, scrambled MCP-1 (NT) miR-145 micelles, free miR-145 (1 mg/kg miR or 0.7 mM total micelle), or PBS). Mice continued high fat diet for an additional 4 weeks or 8 weeks for short- and longer-term efficacy analyses. Mice were then euthanized via CO2 asphyxiation and perfused with PBS, 4% paraformaldehyde (PFA), and PBS again. Organs and aorta were carefully dissected and saved for additional analyses.
Aortic roots and liver tissue were obtained from treated mice. Tissues were weighed and lysed with Trizol (Invitrogen, Carlsbad, CA). miRNeasy Mini Kit (Qiagen, Hilden, Germany) was used to extract microRNA and the miScript II RT Kit (Qiagen, Hilden, Germany) was used to synthesize cDNA according to manufacturer's instructions. Real-time qRT-PCR was performed on the LightCycler 480 Real-Time PCR System ([…]) to evaluate miR-145 levels. RNU-6 was used as an internal control and the 2-AACT method was used to calculate relative expression changes.

[1] = tested on: VSMC phenotype in plaques (α-SMA, CD68, RUNX2, eYFP); experiment: In vivo immunohistochemistry: cellular composition of aortic root plaques; design: species or system mice; conditions: one month after single dose
Description: as §1
Aortic roots were cryosectioned as mentioned above. Tissue sections were blocked in 10% donkey serum with 1% BSA. Sections were subsequently stained with antibodies to GFP (Abcam ab6673), α-SMA (Abcam ab5694), CD68 (Abcam ab125212), and RUNX2 (Abcam ab192256) overnight at 4° C. Donkey anti-rabbit IgG Alexa Fluor 594 (Thermo Fisher, Waltham, MA, USA) and donkey anti-goat IgG Alex Fluor 488 (Thermo Fisher, Waltham, MA, USA) were used as secondary antibodies. Sections were counterstained with DAPI for the nuclei, mounted in ProLong Gold Antifade (Thermo Fisher, Waltham, MA, USA), and imaged using a confocal microscope (Nikon C2 CLSM, Nikon, Tokyo, Japan). Cells were then counted using ImageJ software. […]

[2] = Serum cholesterol quantification (HDL, LDL); format: in vivo, mice; conditions: two months post injection
Description: Serum cholesterol levels were quantified using a high density lipoprotein (HDL) and low density lipoprotein (LDL) quantification kit (Sigma-Aldrich). Following the manufacturer's protocol, HDL and LDL were separated in serum using precipitation buffer. HDL and LDL samples were subsequently incubated with Reaction Mixes and fluorescence (ex: 535 nm/em: 587 nm) was measured using a plate reader (Varioskan LUX, Thermo Fisher, Waltham, MA, USA).

atherosclerotic plaques = experiment: Analysis of atherosclerotic lesions (aortic root H&E, en face Oil Red O) after a single IV dose; format: in vivo, mice
Description: Male Myh11-CreER^T2 ROSA26 STOP-flox eYFP^+/+ Apoe^−/− mice and female Apoe^−/− mice were used for all studies as the Myh11 transgene is expressed only in male mice. Mice were genotyped by qPCR. Following previously reported methods, mice received ten intraperitoneal injections of 1 mg tamoxifen from 6 weeks of age to 8 weeks for 10 mg total of tamoxifen per 25 g of mouse body weight.
as §1
Atherosclerotic plaques were analyzed in two ways: 1) en face analysis of entire aorta with Oil Red O (ORO) lipid stain and 2) hematoxylin and eosin (H&E) stains of cross sections of aortic roots. Briefly, aortas were dissected from the root to the common iliac arteries. Excess adventitial fat was carefully removed and the aorta was fixed in 4% PFA overnight. The tissue was then cleaned in 78% methanol for 5 min before staining for 1 h with 0.2% ORO solution in methanol. The aortas were then washed twice with 78% methanol for 5 min each and cut open longitudinally before imaging with a stereomicroscope (Leica, Wetzlar, Germany). Quantification of positively stained lesions was done using ImageJ software (NIH, Bethesda, MD). Aortic roots were embedded in optimal cutting temperature compound (OCT) and flash frozen in 2-methylbutane and liquid nitrogen. Roots were sectioned at 10 μm thick sections and stained using H&E. Plaque and necrotic core area in three aortic root sections were quantified and averaged for each sample to obtain a mean±S.D. measurement.

[3] = one month after single dose, 1 mg/kg miR IV

## free miR-145: unformulated miR-145, 5′-GUCCAGUUUUCCCAGGAAUCCCU-3′ (SEQ ID NO: 2) (listed as RNA, chemistry not given here; listed as Homo sapiens)
miR-145
  miR-145 expression in the liver, fold increase compared to PBS: 1.5 fold
[1]
  overlap in eYFP and α-SMA signal (α-SMA+YFP+/YFP+): 30.0±22.1%
  α-SMA expression within plaques (α-SMA+/DAPI): 40.1±30.7%
[2]
  serum HDL level: increases
Atherosclerotic plaques; [3]
  overall lesion area of the aorta (ORO en face): 7.0±1.3%
  plaque area in the aortic root: 2.1±0.9%
Atherosclerotic plaques; two months after single dose
  lesion area by en face ORO staining: 8.0±2.0%
  plaque/lesional area in the aortic root: 10.8±5.0%
